This note sets out measurements from ChEMBL document CHEMBL1201862, “PubChem BioAssay data set” (2004).

Test systems include NCI/ADR-RES; A549; OVCAR-5; A498; OVCAR-8; NCI-H23; Hs-578T; UO-31; RXF 393; SK-OV-3; NCI-H226; KM12; OVCAR-4; IGROV-1; HL-60; MCF7; SF-268; T47D; M14.
What all share (experiment): growth of human tumour cells (NCI), 48 h

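In this assay, cells in 96-well plates receive the compound at five concentrations for 48 hours. Endpoints are linearly interpolated between the surrounding concentrations. At the GI50, growth is halved.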 The source made the active and inactive calls. Cut-off read from the data, not from the text of the source: active = GI50 up to about 1.1 µM and inactive = higher. Bounds are passed on as bounds.

`Nc1nc(Cl)cc(NCC2(O)CC2)n1`: the GI50 in the assay on NCI/ADR-RES, in the assay on A549, in the assay on OVCAR-5, with A498, in the assay with OVCAR-8 and in the assay with NCI-H23 was > 100 µM (inactive) throughout. Further, the GI50 with Hs-578T, in the assay with UO-31, with RXF 393, in the assay with SK-OV-3, in the assay on NCI-H226 and with KM12 was > 100 µM (inactive) each time. Also, the GI50 with OVCAR-4, in the assay on IGROV-1, in the assay with HL-60, in the assay with MCF7, in the assay on SF-268 and in the assay on T47D was > 100 µM (inactive) in each case.
For the compound `OC(Cc1cc(CC(O)(C(F)(F)F)C(F)(F)F)nc(CC(O)(C(F)(F)F)C(F)(F)F)c1)(C(F)(F)F)C(F)(F)F`, the GI50 with M14 is 2.43 µM (inactive); in the assay on NCI/ADR-RES, 1.66 µM (inactive); with A549, 1.4 µM (inactive); with OVCAR-5, 3.43 µM (inactive); in the assay with A498 it was 1.32 µM (inactive); in the assay with OVCAR-8 it was 1.33 µM (inactive). The GI50 was 0.475 µM (active) in the assay on NCI-H23; 1.03 µM (active) in the assay on Hs-578T; 2.18 µM (inactive) in the assay on RXF 393; 3.96 µM (inactive) in the assay on SK-OV-3; 2.75 µM (inactive) in the assay on NCI-H226; 0.482 µM (active) in the assay with KM12. The GI50 was 0.851 µM (active) in the assay on OVCAR-4; 0.764 µM (active) in the assay with IGROV-1; > 10 µM (inactive) with HL-60; 0.826 µM (active) in the assay with MCF7; 1.88 µM (inactive) in the assay on SF-268; 0.755 µM (active) in the assay with T47D.
In the case of `CC(C)(C)C(=O)OC(N)/C=C/c1ccccc1` (configuration not stated), the GI50 in the assay with M14, in the assay with NCI/ADR-RES, with A549, in the assay on OVCAR-5, in the assay with A498 and in the assay on OVCAR-8 was > 100 µM (inactive) each time. In addition, the GI50 in the assay with NCI-H23, in the assay with Hs-578T, with UO-31, in the assay on RXF 393, in the assay with SK-OV-3 and in the assay on NCI-H226 was > 100 µM (inactive) in each case. The GI50 in the assay with KM12 is > 100 µM (inactive); in the assay on OVCAR-4, > 100 µM (inactive); in the assay with IGROV-1, > 100 µM (inactive); in the assay on HL-60, 76.2 µM (inactive); with MCF7 it was > 100 µM (inactive); with T47D it was > 100 µM (inactive).
In the case of `O=c1[nH]nc(-c2cccc([N+](=O)[O-])c2)[nH]1`, the GI50 in the assay with M14, in the assay with NCI/ADR-RES, with A549, with OVCAR-5, in the assay with A498 and with OVCAR-8 was > 100 µM (inactive) throughout. The GI50 with NCI-H23 was > 100 µM (inactive); in the assay with Hs-578T, 47.3 µM (inactive); with UO-31, 70.3 µM (inactive); in the assay on RXF 393, > 100 µM (inactive); with NCI-H226, > 100 µM (inactive); with KM12, > 100 µM (inactive). The GI50 in the assay with OVCAR-4, in the assay on IGROV-1, with HL-60, in the assay with MCF7, with SF-268 and in the assay with T47D was > 100 µM (inactive) each time.
